Measurements published in US11285218B2, “Degradation of bromodomain-containing protein 9 (BRD9) by conjugation of BRD9 inhibitors with E3 ligase ligand and methods of use” (Dana-Farber Cancer Institute, Inc., priority 2016, dated 2022).
“Also recorded” adds a separate entry of the source.

Assays:
[1] = system: 32 members of the human bromodomain family; experiment: BromoScan single-point screen, panel profile; format: binding; conditions: single-point 1 μM, 32 bromodomains; in words
Source text: (§1) The BromoScan is an assay that measures the engagement of compounds with bromodomain proteins by utilizing DNA-tagged bromodomain and immobilized ligand attached to solid support. In the control test, DNA-tagged bromodomain binds to the ligand and the bromodomain is captured on the solid support. Compounds that compete for the bromodomain binding location on the ligand will prevent the bromodomain from binding, resulting in less protein captured on the solid support.

ATAD2A = target: T1, ATAD2A (Homo sapiens, UniProt Q6PL18); experiment: BromoScan single-point screen; format: binding; conditions: percent of protein captured on solid support vs control
T1 construct: utilizing DNA-tagged bromodomain and immobilized ligand attached to solid support
T1 sequence (Q6PL18 980-1092 limits assumed): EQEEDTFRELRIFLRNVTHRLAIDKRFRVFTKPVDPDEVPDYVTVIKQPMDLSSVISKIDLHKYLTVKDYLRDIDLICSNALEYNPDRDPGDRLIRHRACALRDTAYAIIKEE
Source text: as §1

ATAD2B = target: T2, ATAD2B (Homo sapiens, UniProt Q9ULI0); experiment: BromoScan single-point screen; format: binding; conditions: percent of protein captured on solid support vs control
T2 construct: utilizing DNA-tagged bromodomain and immobilized ligand attached to solid support
T2 sequence (Q9ULI0 951-1066 limits assumed): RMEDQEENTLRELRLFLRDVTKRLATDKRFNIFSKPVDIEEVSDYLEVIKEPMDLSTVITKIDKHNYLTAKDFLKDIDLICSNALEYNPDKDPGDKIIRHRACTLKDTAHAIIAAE
Source text: as §1

BAZ^2A = target: T3, BAZ^2A (Homo sapiens, UniProt Q9UIF9); experiment: BromoScan single-point screen; format: binding; conditions: percent of protein captured on solid support vs control
T3 construct: utilizing DNA-tagged bromodomain and immobilized ligand attached to solid support
T3 sequence (Q9UIF9 1793-1897 limits assumed): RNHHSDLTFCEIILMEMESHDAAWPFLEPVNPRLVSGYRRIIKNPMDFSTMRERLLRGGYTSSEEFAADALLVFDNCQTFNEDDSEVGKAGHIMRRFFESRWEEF
Source text: as §1

BAZ^2B = target: T4, BAZ^2B (Homo sapiens, UniProt Q9UIF8); experiment: BromoScan single-point screen; format: binding; conditions: percent of protein captured on solid support vs control
T4 construct: utilizing DNA-tagged bromodomain and immobilized ligand attached to solid support
T4 sequence (Q9UIF8 2060-2164 limits assumed): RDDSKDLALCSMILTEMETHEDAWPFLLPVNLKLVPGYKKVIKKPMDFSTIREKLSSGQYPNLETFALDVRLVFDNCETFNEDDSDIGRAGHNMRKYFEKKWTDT
Source text: as §1

BRD1 = target: T5, BRD1 (Homo sapiens, UniProt O95696); experiment: BromoScan single-point screen; format: binding; conditions: percent of protein captured on solid support vs control
T5 construct: utilizing DNA-tagged bromodomain and immobilized ligand attached to solid support
T5 sequence (O95696 562-666 limits assumed): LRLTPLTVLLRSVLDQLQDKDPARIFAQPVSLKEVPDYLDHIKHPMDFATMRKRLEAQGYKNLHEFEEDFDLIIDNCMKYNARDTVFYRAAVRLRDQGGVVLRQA
Source text: as §1

BRD2(1) = target: T6, BRD2(1) (Homo sapiens, UniProt P25440); experiment: BromoScan single-point screen; format: binding; conditions: percent of protein captured on solid support vs control
T6 construct: utilizing DNA-tagged bromodomain and immobilized ligand attached to solid support
T6 sequence (P25440 74-180 limits assumed): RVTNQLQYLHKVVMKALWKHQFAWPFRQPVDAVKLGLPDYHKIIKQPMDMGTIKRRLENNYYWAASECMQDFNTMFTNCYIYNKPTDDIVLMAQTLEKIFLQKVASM
Source text: as §1

BRD2(2) = target: T7, BRD2(2) (Homo sapiens, UniProt P25440); experiment: BromoScan single-point screen; format: binding; conditions: percent of protein captured on solid support vs control
T7 construct: utilizing DNA-tagged bromodomain and immobilized ligand attached to solid support
T7 sequence (P25440 344-453 limits assumed): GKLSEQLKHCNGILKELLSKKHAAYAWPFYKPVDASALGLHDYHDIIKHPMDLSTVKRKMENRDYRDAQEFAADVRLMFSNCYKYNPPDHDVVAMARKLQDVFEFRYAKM
Source text: as §1

BRD3(1) = target: T8, BRD3(1) (Homo sapiens, UniProt Q15059); experiment: BromoScan single-point screen; format: binding; conditions: percent of protein captured on solid support vs control
T8 construct: utilizing DNA-tagged bromodomain and immobilized ligand attached to solid support
T8 sequence (Q15059 34-140 limits assumed): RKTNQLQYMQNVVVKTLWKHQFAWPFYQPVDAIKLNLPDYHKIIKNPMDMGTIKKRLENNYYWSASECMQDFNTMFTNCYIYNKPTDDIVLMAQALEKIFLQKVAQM
Source text: as §1

BRD3(2) = target: T9, BRD3(2) (Homo sapiens, UniProt Q15059); experiment: BromoScan single-point screen; format: binding; conditions: percent of protein captured on solid support vs control
T9 construct: utilizing DNA-tagged bromodomain and immobilized ligand attached to solid support
T9 sequence (Q15059 306-415 limits assumed): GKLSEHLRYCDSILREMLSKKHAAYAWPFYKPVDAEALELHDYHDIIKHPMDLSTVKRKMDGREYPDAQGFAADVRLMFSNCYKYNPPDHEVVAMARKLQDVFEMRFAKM
Source text: as §1

BRD7 [2] = target: T10, BRD7 (Homo sapiens, UniProt Q9NPI1); experiment: BromoScan single-point screen; format: binding; conditions: percent of protein captured on solid support vs control
T10 construct: utilizing DNA-tagged bromodomain and immobilized ligand attached to solid support
Source text: as §1
T10 sequence (Q9NPI1 131-235 limits assumed): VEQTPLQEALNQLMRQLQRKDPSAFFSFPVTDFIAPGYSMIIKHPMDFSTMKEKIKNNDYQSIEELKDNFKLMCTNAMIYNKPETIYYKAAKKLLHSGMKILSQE

BRDT(1) = target: T11, BRDT(1) (Homo sapiens, UniProt Q58F21); experiment: BromoScan single-point screen; format: binding; conditions: percent of protein captured on solid support vs control
T11 construct: utilizing DNA-tagged bromodomain and immobilized ligand attached to solid support
Source text: as §1

BRDT(2) = target: T12, BRDT(2) (Homo sapiens, UniProt Q58F21); experiment: BromoScan single-point screen; format: binding; conditions: percent of protein captured on solid support vs control
T12 construct: utilizing DNA-tagged bromodomain and immobilized ligand attached to solid support
Source text: as §1

BRPF1 = target: T13, BRPF1 (Homo sapiens, UniProt P55201); experiment: BromoScan single-point screen; format: binding; conditions: percent of protein captured on solid support vs control
T13 construct: utilizing DNA-tagged bromodomain and immobilized ligand attached to solid support
T13 sequence (P55201 628-732 limits assumed): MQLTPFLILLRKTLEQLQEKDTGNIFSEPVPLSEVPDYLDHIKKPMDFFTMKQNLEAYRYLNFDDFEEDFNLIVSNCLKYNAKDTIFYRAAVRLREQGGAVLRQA
Source text: as §1

BRPF3 = target: T14, BRPF3 (Homo sapiens, UniProt Q9ULD4); experiment: BromoScan single-point screen; format: binding; conditions: percent of protein captured on solid support vs control
T14 construct: utilizing DNA-tagged bromodomain and immobilized ligand attached to solid support
T14 sequence (Q9ULD4 589-693 limits assumed): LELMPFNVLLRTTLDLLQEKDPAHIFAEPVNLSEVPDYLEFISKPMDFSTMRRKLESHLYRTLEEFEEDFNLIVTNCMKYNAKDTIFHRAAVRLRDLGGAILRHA
Source text: as §1

CECR2 = target: T15, CECR2 (Homo sapiens, UniProt Q9BXF3); experiment: BromoScan single-point screen; format: binding; conditions: percent of protein captured on solid support vs control
T15 construct: utilizing DNA-tagged bromodomain and immobilized ligand attached to solid support
T15 sequence (Q9BXF3 434-538 limits assumed): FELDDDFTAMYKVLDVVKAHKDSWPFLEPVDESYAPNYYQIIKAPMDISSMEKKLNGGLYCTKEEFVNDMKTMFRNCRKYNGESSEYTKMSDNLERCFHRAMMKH
Source text: as §1

CREBBP = target: T16, CREBBP (Homo sapiens, UniProt Q92793); experiment: BromoScan single-point screen; format: binding; conditions: percent of protein captured on solid support vs control
T16 construct: utilizing DNA-tagged bromodomain and immobilized ligand attached to solid support
T16 sequence (Q92793 1085-1192 limits assumed): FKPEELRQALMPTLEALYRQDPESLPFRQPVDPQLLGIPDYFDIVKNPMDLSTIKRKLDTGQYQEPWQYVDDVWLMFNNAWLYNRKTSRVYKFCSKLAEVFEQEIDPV
Source text: as §1

EP300 = target: T17, EP300 (Homo sapiens, UniProt Q09472); experiment: BromoScan single-point screen; format: binding; conditions: percent of protein captured on solid support vs control
T17 construct: utilizing DNA-tagged bromodomain and immobilized ligand attached to solid support
T17 sequence (Q09472 1049-1156 limits assumed): as the sequence (Q92793 1085-1192 limits assumed) above, with N47S, V73I, F93Y, A98S counted along it
Source text: as §1

FALZ = target: T18, FALZ (Homo sapiens, UniProt Q12830); experiment: BromoScan single-point screen; format: binding; conditions: percent of protein captured on solid support vs control
T18 construct: utilizing DNA-tagged bromodomain and immobilized ligand attached to solid support
Source text: as §1

GCN5L2 = target: T19, GCN5L2 (Homo sapiens, UniProt Q92830); experiment: BromoScan single-point screen; format: binding; conditions: percent of protein captured on solid support vs control
T19 construct: utilizing DNA-tagged bromodomain and immobilized ligand attached to solid support
T19 sequence (Q92830 728-832 limits assumed): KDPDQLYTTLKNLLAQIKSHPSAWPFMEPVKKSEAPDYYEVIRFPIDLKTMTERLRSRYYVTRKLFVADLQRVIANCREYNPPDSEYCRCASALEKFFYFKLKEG
Source text: as §1

PBRM1(2) = target: T20, PBRM1(2) (Homo sapiens, UniProt Q86U86); experiment: BromoScan single-point screen; format: binding; conditions: percent of protein captured on solid support vs control
T20 construct: utilizing DNA-tagged bromodomain and immobilized ligand attached to solid support
T20 sequence (Q86U86 177-287 limits assumed): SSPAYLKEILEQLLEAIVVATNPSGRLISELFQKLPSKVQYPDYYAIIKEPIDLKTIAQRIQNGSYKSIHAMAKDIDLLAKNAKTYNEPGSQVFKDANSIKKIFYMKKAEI
Source text: as §1

PBRM1(5) = target: T21, PBRM1(5) (Homo sapiens, UniProt Q86U86); experiment: BromoScan single-point screen; format: binding; conditions: percent of protein captured on solid support vs control
T21 construct: utilizing DNA-tagged bromodomain and immobilized ligand attached to solid support
T21 sequence (Q86U86 653-763 limits assumed): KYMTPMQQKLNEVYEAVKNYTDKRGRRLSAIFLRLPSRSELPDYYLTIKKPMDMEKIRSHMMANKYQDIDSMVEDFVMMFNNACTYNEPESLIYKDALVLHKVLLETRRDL
Source text: as §1

PCAF = target: T22, PCAF (Homo sapiens, UniProt Q92831); experiment: BromoScan single-point screen; format: binding; conditions: percent of protein captured on solid support vs control
T22 construct: utilizing DNA-tagged bromodomain and immobilized ligand attached to solid support
T22 sequence (Q92831 723-827 limits assumed): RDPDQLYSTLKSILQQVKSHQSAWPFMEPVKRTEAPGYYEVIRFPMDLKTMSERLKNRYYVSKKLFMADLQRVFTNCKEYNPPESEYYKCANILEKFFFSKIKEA
Source text: as §1

SMARCA2 = target: T23, SMARCA2 (Homo sapiens, UniProt P51531); experiment: BromoScan single-point screen; format: binding; conditions: percent of protein captured on solid support vs control
T23 construct: utilizing DNA-tagged bromodomain and immobilized ligand attached to solid support
T23 sequence (P51531 1378-1506 limits assumed): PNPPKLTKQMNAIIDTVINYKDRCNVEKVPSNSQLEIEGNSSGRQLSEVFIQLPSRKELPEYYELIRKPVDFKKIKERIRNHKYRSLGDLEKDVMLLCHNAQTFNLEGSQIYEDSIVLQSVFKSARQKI
Source text: as §1

SMARCA4 = target: T24, SMARCA4 (Homo sapiens, UniProt P51532); experiment: BromoScan single-point screen; format: binding; conditions: percent of protein captured on solid support vs control
T24 construct: utilizing DNA-tagged bromodomain and immobilized ligand attached to solid support
T24 sequence (P51532 1453-1564 limits assumed): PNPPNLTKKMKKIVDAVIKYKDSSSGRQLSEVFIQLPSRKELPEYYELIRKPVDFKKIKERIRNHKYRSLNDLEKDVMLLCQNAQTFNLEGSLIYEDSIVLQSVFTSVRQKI
Source text: as §1

TAF1(2) = target: T25, TAF1(2) (Homo sapiens, UniProt P21675); experiment: BromoScan single-point screen; format: binding; conditions: percent of protein captured on solid support vs control
T25 construct: utilizing DNA-tagged bromodomain and immobilized ligand attached to solid support
T25 sequence (P21675 1519-1628 limits assumed): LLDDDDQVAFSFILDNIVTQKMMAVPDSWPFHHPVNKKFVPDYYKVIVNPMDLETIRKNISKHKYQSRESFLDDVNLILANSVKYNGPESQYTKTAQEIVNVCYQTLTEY
Source text: as §1

TAF1L(2) = target: T26, TAF1L(2) (Homo sapiens, UniProt Q8IZX4); experiment: BromoScan single-point screen; format: binding; conditions: percent of protein captured on solid support vs control
T26 construct: utilizing DNA-tagged bromodomain and immobilized ligand attached to solid support
T26 sequence (Q8IZX4 1517-1626 limits assumed): as the sequence (P21675 1519-1628 limits assumed) above, with V46M, M51V, V102I, L107I counted along it
Source text: as §1

TRIM24 (PHD, Bromo.) = target: T27, TRIM24 (PHD, Bromo.) (Homo sapiens, UniProt O15164); experiment: BromoScan single-point screen; format: binding; conditions: percent of protein captured on solid support vs control
T27 construct: utilizing DNA-tagged bromodomain and immobilized ligand attached to solid support
T27 sequence (O15164 824-1006 limits assumed): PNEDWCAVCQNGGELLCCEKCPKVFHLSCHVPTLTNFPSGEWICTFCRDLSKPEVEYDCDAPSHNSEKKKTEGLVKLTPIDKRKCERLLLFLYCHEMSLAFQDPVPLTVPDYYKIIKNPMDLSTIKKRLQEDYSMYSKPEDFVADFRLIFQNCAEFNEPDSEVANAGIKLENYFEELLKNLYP
Source text: as §1

WDR9(2) = target: T28, WDR9(2) (Homo sapiens, UniProt Q9NSI6); experiment: BromoScan single-point screen; format: binding; conditions: percent of protein captured on solid support vs control
T28 construct: utilizing DNA-tagged bromodomain and immobilized ligand attached to solid support
T28 sequence (Q9NSI6 1313-1418 limits assumed): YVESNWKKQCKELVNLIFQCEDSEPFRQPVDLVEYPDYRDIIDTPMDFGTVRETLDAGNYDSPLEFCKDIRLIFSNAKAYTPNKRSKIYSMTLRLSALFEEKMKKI
Source text: as §1

TRIM33 (PHD, Bromo.) = experiment: BromoScan single-point screen; format: binding, human; conditions: percent of protein captured on solid support vs control
Source text: as §1

BRD7 [3] = target: BRD7 (Homo sapiens, UniProt Q9NPI1); experiment: BRD7 immunoblot in MOLM-13; conditions: MOLM-13, 4 hour treatment
Target sequence in this assay (Q9NPI1 whole entry): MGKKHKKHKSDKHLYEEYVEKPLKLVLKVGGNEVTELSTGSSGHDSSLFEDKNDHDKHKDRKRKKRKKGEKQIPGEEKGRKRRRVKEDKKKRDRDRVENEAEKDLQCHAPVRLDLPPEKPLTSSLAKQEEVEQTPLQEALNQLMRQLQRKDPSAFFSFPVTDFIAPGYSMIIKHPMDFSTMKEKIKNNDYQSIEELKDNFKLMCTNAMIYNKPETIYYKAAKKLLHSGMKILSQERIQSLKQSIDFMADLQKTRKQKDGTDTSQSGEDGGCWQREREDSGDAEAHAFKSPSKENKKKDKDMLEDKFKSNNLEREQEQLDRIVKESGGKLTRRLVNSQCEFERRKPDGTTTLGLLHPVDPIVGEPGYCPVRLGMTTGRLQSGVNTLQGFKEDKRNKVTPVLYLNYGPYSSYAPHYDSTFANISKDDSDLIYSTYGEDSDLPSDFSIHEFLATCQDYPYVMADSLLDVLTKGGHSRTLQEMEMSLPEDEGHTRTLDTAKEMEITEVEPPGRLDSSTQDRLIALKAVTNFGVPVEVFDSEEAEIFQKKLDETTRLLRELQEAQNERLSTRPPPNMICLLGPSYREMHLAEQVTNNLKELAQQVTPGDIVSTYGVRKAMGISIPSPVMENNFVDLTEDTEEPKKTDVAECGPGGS
Protocol: In additional experiments, cells were washed with PBS, before being lysed in RIPA buffer supplemented with 1×HALT™ protease inhibitor cocktail (Thermo Scientific) for 10 min on ice, followed by low-amplitude sonication for 10 seconds at 4° C. […] In soluble material was removed by centrifugation at 20,000×g for 20 min before protein content was quantified by BCA assay (Pierce). […] Blots were imaged using fluorescence-labeled secondary antibodies (LI-COR) on the OdysseyCLxImager (LI-COR).

[4] = system: MM.1S multiple myeloma line; experiment: ATPlite viability assay, MM.1S; conditions: 72 hour treatment, in words
Protocol: 500 cells/well were plated at a volume of 40 μL/well in white tissue culture treated 384 well assay plates (Thermo Scientific) before DMSO compound stock was added from pre-diluted plates by pin transfer using a Janus Workstation (PerkinElmer, USA). […] Assay plates were allowed to equilibrate to RT for 30 min before reconstituted ATPlite 1 Step reagent (Perkin Elmer) was dispensed at 1:1 volume/well by EL406 automated liquid handler (Biotek, USA).

COc1cc(-c2cn(C)c(=O)c3cnccc23)cc(OC)c1CN(C)CC(=O)NCCOCCOCCNc1cccc2c1C(=O)N(C1CCC(=O)NC1=O)C2=O (centres unmarked) [Compound I-25]
bromodomain interaction profile [1]: exclusive interaction with BRD9; also recorded: exclusively interacts with BRD9
% Ctrl @ 1 μM (ATAD2A): 94 % Ctrl
% Ctrl @ 1 μM (ATAD2B): 81 % Ctrl
% Ctrl @ 1 μM (BAZ^2A): 62 % Ctrl
% Ctrl @ 1 μM (BAZ^2B): 75 % Ctrl
% Ctrl @ 1 μM (BRD1): 75 % Ctrl
% Ctrl @ 1 μM (BRD2(1)): 81 % Ctrl
% Ctrl @ 1 μM (BRD2(2)): 93 % Ctrl
% Ctrl @ 1 μM (BRD3(1)): 87 % Ctrl
% Ctrl @ 1 μM (BRD3(2)): 85 % Ctrl
% Ctrl @ 1 μM (BRD7 [2]): 25 % Ctrl
% Ctrl @ 1 μM (BRDT(1)): 90 % Ctrl
% Ctrl @ 1 μM (BRDT(2)): 83 % Ctrl
% Ctrl @ 1 μM (BRPF1): 75 % Ctrl
% Ctrl @ 1 μM (BRPF3): 86 % Ctrl
% Ctrl @ 1 μM (CECR2): 14 % Ctrl
% Ctrl @ 1 μM (CREBBP): 88 % Ctrl
% Ctrl @ 1 μM (EP300): 88 % Ctrl
% Ctrl @ 1 μM (FALZ): 79 % Ctrl
% Ctrl @ 1 μM (GCN5L2): 77 % Ctrl
% Ctrl @ 1 μM (PBRM1(2)): 79 % Ctrl
% Ctrl @ 1 μM (PBRM1(5)): 89 % Ctrl
% Ctrl @ 1 μM (PCAF): 67 % Ctrl
% Ctrl @ 1 μM (SMARCA2): 70 % Ctrl
% Ctrl @ 1 μM (SMARCA4): 57 % Ctrl
% Ctrl @ 1 μM (TAF1(2)): 63 % Ctrl
% Ctrl @ 1 μM (TAF1L(2)): 80 % Ctrl
% Ctrl @ 1 μM (TRIM24 (PHD, Bromo.)): 98 % Ctrl
% Ctrl @ 1 μM (WDR9(2)): 86 % Ctrl
% Ctrl @ 1 μM (TRIM33 (PHD, Bromo.)): 100 % Ctrl
BRD7 degradation (immunoblot) (BRD7 [3]): not able to induce degradation of BRD7 at any of the concentrations
efficacy on viability [4]: comparable efficacy
